The values below come from ChEMBL document CHEMBL1201862, “PubChem BioAssay data set” (2004).

In assay [1] the test system is H4. Kind of assay: inhibitors of control reporter signal in H4 cells – cell-based, plate reader, dry powder samples, counter-screen for prion reporter project, dose response (AID 540255). The assay is classed as functional. The conditions noted are these: Homo sapiens.
Assay [2] has as its system H4. Briefly: Inhibitors of Prion Protein 5' UTR mRNA Measured in Cell-Based System Using Plate Reader - 2078-01_Inhibitor_Dose_DryPowder_Activity. [Related pubchem assays (depositor defined):AID488894]. The assay is classed as functional. The conditions noted are these: Homo sapiens.
Assay [3] can be described thus: reduction of Shn3 3'UTR-driven luciferase in osteoblasts – cell-based, Clone20 osteoblasts, firefly luciferase, cherry-picked, dose response (AID 624132).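 Further: firefly luciferase luminescence from reporter carrying the Shn3 3'UTR in osteoblasts.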 The assay is classed as functional.
The target in assay [4] is T1, Replicative DNA helicase DnaB (Mycobacterium tuberculosis, UniProt P9WMR3).
T1 sequence (P9WMR3 whole entry): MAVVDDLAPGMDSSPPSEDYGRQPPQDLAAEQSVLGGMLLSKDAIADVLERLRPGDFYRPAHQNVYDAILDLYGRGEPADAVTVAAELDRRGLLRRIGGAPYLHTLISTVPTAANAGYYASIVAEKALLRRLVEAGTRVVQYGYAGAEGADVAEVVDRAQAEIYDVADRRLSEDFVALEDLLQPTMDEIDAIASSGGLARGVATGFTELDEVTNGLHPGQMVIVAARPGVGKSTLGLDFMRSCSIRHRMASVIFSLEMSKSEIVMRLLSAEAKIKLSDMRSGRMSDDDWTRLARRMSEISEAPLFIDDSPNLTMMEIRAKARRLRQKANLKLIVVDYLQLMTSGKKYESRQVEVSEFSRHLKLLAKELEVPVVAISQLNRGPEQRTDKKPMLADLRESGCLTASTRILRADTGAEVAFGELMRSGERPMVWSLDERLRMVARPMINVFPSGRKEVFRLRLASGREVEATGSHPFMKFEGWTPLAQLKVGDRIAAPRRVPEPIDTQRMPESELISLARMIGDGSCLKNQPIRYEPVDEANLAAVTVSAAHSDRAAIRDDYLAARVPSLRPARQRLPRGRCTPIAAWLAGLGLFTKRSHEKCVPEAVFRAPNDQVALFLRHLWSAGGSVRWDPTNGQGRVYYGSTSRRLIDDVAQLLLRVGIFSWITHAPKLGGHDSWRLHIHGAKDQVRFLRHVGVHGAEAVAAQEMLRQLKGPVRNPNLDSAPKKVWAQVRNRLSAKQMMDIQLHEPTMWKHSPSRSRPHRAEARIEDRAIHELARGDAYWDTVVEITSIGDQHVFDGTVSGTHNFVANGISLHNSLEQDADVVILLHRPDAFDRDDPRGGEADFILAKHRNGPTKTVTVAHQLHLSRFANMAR
Briefly: DnaB intein splicing inhibitors, dose response, biochemical, cell-free fluorescence (AID 449749). It is filed as functional.

The nature of assay [5]: non-specific 3'UTR reporter inhibition in Clone20-Shn3RL – cell-based, Renilla luciferase, cherry-picked, counter-screen for Shn3 inhibitor project, dose response (AID 624133). It is filed as functional. (Counterscreens check selectivity or assay interference.)
A short description of assay [6]: viability of HCT116 lacking mutant beta-catenin – cell-based, human colon tumor, dose response (AID 1045).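 Further: HCT116 colon tumor cells with beta catenin knocked out; cells exposed to compound for 60 hours.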 It is filed as functional.
Assay [7] concerns the target T2, Heat shock factor protein 1 (Mus musculus, UniProt P38532).
T2 sequence (P38532 whole entry): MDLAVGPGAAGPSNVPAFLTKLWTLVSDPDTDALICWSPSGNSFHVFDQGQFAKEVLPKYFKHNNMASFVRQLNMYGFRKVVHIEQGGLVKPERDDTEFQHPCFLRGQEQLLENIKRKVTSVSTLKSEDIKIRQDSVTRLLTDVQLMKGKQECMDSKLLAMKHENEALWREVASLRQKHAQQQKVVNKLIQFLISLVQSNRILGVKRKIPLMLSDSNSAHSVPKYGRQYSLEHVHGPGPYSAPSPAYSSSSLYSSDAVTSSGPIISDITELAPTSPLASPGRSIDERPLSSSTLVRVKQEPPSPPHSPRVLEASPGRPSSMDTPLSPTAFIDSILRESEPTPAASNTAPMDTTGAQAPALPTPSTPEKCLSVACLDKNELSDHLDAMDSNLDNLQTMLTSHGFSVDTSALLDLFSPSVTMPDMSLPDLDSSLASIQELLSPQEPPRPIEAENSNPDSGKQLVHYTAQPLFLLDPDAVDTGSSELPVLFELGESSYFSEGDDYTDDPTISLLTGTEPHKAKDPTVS
Briefly: decrease of HSF1-responsive luciferase luminescence – cell-based, NIH3T3, dose retest, confirmation (AID 2382).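 Further: NIH3T3 fibroblasts with HSF1-driven luciferase reporter stressed by proteasome inhibitor MG132; luminescence from HSF1-driven luciferase expression after 8 hours of MG132 stress.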 It is filed as functional.

Assay [8] in a line: HIV-1 Vif–A3G interaction blockers – biochemical, TR-FRET, GST-Vif 1-94, biotin-A3G peptide, dose response retest, primary screen (AID 1117319).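 Further: TR-FRET signal of purified GST-Vif binding a biotinylated A3G peptide; inhibitors lower the FRET signal by blocking Vif and A3G binding.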 It is filed as functional. A general note: TR-FRET usually uses a lanthanide donor and a delayed reading to cut background.
A short description of assay [9]: viability loss in Vero cells – cytotoxicity control for Vif-APOBEC3G degradation inhibitor project, dose response (AID 1117358). It is filed as functional. The conditions noted are these: Vero.
The target of assay [10] is T3, Protein RecA (Mycobacterium tuberculosis, UniProt P9WHJ3).
T3 sequence (P9WHJ3 whole entry): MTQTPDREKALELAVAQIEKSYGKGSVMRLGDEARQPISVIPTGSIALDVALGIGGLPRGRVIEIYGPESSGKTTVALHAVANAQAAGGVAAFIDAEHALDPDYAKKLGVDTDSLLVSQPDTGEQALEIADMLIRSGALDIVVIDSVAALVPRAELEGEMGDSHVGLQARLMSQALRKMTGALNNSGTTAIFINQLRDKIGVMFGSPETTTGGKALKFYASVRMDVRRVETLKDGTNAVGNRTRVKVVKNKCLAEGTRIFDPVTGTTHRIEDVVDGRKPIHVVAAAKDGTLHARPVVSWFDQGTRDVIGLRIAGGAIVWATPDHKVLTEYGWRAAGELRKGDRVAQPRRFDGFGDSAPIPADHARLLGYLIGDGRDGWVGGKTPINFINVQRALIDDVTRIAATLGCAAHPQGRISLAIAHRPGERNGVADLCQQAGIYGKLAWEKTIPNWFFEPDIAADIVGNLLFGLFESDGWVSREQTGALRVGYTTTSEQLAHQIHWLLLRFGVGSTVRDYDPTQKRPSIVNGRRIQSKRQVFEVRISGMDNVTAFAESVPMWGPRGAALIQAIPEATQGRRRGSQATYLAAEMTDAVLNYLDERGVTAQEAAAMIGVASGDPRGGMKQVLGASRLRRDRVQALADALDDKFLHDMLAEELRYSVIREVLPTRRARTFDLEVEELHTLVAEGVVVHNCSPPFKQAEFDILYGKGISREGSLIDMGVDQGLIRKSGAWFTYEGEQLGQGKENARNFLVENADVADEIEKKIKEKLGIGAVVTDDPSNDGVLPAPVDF
Briefly: Fluorescence Cell-Free Homogeneous Dose Retest to Identify Inhibitors of RecA-Intein Splicing Activity. [Related pubchem assays (depositor defined):AID2097, AID2223, AID489010, AID492950]. The assay is classed as functional.

Assay [11] in a line: viability of PTEN-deleted HCT116 cells – cell-based, HCT116 PTEN knockout, dose response (AID 1047).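 Further: HCT116 colon tumor cells with PTEN knocked out; cells exposed to compound for 60 hours before readout; potency for loss of cell viability measured by luminescence.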 The assay is classed as functional.
Assay [12] is described as follows: HEK-293T viability loss, compound-treated – cell-based, uHTS hits, cytotoxicity control for B/T-cell NF-kB inhibitor project, dose response (AID 489019).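 Further: IC50 reflects cytotoxicity as loss of cell viability.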 The assay is classed as functional.
Assay [13] can be described thus: loss of viability in HepG2 cells – cell-based, CellTiter-Glo, cherry-picked, cytotoxicity control for Shn3 inhibitor project, dose response (AID 624134). The assay is classed as functional. In general terms: In ATP-based viability assays light output follows the ATP content of the culture.
Assay [14] has as its target Melanocortin receptor 4 (Homo sapiens, UniProt P32245). Kind of assay: inhibitors of MC4R cAMP signaling – cell-based, TR-FRET, biased antagonists, dose response (AID 602298).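 Further: antagonist potency against agonist-stimulated cAMP production.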 The assay is classed as functional.
The nature of assay [15]: cAMP pathway inhibition in counterscreen cell line – TR-FRET cAMP detection, counter-screen for MC4R biased antagonist project, dose response (AID 602305).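 Further: U2OS cells stimulated with forskolin near its EC80 as the cAMP inducer; potency is for inhibition of forskolin-stimulated cAMP signaling.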 It is filed as functional, cell-based.
The nature of assay [16]: Luminescence-based dose response cell-based high throughput screening assay for cytotoxic compounds using the IEC-6 intestinal epithelial cell line. [Related pubchem assays: 1858 (Summary AID.), 1825 (Counterscreen.), 1907 (Confirmation screen.)]. It is filed as functional.
Assay [17] deals with Jurkat. Kind of assay: blockers of NF-kB activation in T cells – Jurkat, luciferase reporter, luminescence, B- and T-cell, dose response (AID 489004).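 Further: NF-kB luciferase reporter Jurkat cells stimulated with PMA plus ionomycin.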 The assay is classed as functional, cell-based. The conditions noted are these: Homo sapiens.
Assay [18] has as its target Voltage-gated inwardly rectifying potassium channel KCNH2 (Homo sapiens, UniProt Q12809). Particulars: Potency.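 Further: confirmatory quantitative high-throughput screen measuring inhibition of hERG channel activity.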
The target in assay [19] is Cyclin-dependent kinase 5/CDK5 activator 1 (Homo sapiens, UniProt Q00535). Kind of assay: blockade of human CDK5 activity – biochemical, cherry-picked samples, set 2, dose response (AID 504545).
For assay [20], the target named is Induced myeloid leukemia cell differentiation protein Mcl-1 (Homo sapiens, UniProt Q07820). It is filed as functional.
Assay [21] deals with Dual specificity tyrosine-phosphorylation-regulated kinase 1A (Rattus norvegicus, UniProt Q63470). The assay is classed as biochemical, Homo sapiens.
The target in assay [22] is Ras and Rab interactor 1/Tyrosine-protein kinase ABL1 (Homo sapiens, UniProt P00519+Q13671). It is filed as functional.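 Further: biochemical TR-FRET dose-response test measuring inhibition of binding between Rin1 and Abl proteins.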
Chain of Ras and Rab interactor 1/Tyrosine-protein kinase ABL1 (P00519 whole entry): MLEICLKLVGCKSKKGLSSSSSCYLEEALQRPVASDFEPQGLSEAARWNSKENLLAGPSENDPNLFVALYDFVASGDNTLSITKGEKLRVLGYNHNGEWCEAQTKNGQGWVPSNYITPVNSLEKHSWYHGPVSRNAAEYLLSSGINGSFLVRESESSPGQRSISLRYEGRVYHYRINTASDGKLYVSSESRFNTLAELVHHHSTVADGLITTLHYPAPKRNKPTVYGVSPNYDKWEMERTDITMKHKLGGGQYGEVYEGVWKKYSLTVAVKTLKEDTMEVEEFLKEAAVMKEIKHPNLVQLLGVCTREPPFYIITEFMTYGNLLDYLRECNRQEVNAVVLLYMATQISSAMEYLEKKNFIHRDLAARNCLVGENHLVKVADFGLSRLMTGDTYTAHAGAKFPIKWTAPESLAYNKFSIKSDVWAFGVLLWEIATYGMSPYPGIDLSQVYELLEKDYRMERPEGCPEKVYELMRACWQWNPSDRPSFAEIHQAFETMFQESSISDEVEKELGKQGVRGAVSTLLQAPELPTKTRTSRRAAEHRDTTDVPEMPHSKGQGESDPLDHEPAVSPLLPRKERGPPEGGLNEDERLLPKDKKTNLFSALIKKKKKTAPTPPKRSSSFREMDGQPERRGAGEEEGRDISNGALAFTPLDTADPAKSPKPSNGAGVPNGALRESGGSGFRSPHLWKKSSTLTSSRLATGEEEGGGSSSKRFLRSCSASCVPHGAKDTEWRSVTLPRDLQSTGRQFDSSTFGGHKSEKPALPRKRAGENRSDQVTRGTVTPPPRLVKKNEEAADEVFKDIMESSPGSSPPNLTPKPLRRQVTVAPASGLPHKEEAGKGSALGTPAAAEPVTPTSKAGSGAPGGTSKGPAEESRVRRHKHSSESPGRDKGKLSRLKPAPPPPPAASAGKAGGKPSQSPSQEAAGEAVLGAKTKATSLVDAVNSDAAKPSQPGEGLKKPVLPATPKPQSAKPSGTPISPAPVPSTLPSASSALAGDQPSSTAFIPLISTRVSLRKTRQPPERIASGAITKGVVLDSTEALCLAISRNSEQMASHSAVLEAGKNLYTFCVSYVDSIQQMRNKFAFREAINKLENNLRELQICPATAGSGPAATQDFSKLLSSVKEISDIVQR
Chain of Ras and Rab interactor 1/Tyrosine-protein kinase ABL1 (Q13671 whole entry): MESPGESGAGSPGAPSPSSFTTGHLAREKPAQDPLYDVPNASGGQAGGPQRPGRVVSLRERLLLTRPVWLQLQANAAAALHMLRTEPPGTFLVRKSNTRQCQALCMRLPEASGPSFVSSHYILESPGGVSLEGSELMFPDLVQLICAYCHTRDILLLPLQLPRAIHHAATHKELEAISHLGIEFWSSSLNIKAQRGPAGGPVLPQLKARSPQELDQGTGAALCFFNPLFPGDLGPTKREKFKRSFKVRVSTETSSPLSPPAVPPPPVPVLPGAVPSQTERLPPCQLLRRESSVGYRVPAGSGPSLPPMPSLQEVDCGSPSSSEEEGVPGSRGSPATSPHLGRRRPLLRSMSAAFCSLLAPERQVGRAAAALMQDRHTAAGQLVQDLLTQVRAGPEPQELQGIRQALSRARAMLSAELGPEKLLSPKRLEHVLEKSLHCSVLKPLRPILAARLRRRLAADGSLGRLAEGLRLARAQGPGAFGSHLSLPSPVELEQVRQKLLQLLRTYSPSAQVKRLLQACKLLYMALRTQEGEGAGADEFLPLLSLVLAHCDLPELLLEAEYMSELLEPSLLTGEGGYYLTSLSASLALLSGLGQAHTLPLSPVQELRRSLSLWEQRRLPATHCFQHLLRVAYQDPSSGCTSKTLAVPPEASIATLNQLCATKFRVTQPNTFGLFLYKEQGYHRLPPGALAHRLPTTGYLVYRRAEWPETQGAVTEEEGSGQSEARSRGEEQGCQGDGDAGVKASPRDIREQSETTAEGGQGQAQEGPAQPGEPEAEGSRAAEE
In assay [23] the target is Large T antigen (Simian virus 40, UniProt P03070). It is filed as functional, Betapolyomavirus macacae.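 Further: Confirmatory-stage PubChem screen for compounds that inhibit SV40 T antigen.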
In assay [24] the target is T4, SUMO-activating enzyme (Homo sapiens, UniProt Q9UBT2). Briefly: blockers of SAE1/SAE2–UBC9 SUMO transfer – biochemical, HTRF, uHTS, primary screen (AID 2006). It is filed as protein-complex assay.
T4 sequence (Q9UBE0 whole entry): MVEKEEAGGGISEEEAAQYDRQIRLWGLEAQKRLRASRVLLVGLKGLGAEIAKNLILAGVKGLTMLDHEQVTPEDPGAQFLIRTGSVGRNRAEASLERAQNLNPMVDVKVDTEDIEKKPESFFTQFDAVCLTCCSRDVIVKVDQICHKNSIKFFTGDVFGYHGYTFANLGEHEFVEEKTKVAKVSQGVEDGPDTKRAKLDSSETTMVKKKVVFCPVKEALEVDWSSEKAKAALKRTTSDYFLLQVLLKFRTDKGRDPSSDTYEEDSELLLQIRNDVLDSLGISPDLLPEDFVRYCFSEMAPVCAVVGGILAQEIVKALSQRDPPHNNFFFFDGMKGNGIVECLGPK
T4 sequence (Q9UBT2 whole entry): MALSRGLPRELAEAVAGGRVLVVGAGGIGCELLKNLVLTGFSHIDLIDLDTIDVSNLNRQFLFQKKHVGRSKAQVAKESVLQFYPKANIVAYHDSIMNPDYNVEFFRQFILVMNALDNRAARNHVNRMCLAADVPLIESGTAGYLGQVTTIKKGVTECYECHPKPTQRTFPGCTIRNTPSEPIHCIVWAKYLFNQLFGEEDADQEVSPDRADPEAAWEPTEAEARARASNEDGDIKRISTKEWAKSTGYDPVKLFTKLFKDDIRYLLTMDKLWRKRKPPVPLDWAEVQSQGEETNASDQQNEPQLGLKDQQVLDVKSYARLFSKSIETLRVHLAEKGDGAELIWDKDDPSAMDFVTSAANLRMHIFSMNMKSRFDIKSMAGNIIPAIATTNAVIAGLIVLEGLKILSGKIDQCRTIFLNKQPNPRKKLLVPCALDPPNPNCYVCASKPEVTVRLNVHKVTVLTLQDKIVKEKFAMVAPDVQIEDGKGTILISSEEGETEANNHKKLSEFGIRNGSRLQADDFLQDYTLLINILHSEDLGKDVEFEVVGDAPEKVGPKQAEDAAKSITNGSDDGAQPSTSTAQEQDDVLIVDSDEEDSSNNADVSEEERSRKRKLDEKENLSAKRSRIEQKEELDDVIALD
In assay [25] the target is T4, SUMO-activating enzyme. Kind of assay: blockers of UBC9-mediated SUMO conjugation – biochemical, AlphaScreen, SUMOylation inhibitor project, confirmation (AID 2018). The assay is classed as functional.
Assay [26] has as its system INS1. Kind of assay: suppression of NO production in INS-1E cells – cell-based, Griess absorbance, dry powder, dose response (AID 488866). The assay is classed as functional. Particulars: Rattus norvegicus.
Assay [27] deals with 5-hydroxytryptamine receptor 5A (Homo sapiens, UniProt P47898). Kind of assay: Counterscreen for agonists of OPRM1-OPRD1 heterodimerization: luminescence-based cell-based high throughput dose response assay to identify agonists of 5-hydroxytryptamine (serotonin) 5A receptor (HTR5A). [Related pubchem assays (depositor defined):AID504326, AID504355, AID504692, AID504904, AID504905]. It is filed as functional.
Chain of 5-hydroxytryptamine receptor 5A (P47898 whole entry): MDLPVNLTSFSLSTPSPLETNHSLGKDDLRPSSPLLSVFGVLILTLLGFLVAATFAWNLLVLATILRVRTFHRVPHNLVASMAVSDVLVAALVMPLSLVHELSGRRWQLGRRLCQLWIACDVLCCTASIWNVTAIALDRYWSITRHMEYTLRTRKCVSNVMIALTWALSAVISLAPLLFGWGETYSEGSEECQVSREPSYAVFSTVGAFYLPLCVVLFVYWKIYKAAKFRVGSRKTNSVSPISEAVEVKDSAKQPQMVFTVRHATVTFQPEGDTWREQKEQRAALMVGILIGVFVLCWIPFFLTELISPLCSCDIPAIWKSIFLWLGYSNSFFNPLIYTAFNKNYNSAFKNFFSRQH

Active and inactive are the calls of the source. Some results are limits rather than exact numbers.

Chain of Melanocortin receptor 4 (P32245 whole entry): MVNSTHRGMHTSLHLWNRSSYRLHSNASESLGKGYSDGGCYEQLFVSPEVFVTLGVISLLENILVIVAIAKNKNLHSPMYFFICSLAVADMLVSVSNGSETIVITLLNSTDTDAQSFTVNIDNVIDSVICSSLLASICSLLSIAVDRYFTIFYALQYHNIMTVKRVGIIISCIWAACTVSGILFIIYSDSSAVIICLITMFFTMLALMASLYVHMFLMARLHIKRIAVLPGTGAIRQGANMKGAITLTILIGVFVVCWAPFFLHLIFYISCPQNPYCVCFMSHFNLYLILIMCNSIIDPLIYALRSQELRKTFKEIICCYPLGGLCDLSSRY
Chain of Voltage-gated inwardly rectifying potassium channel KCNH2 (Q12809 whole entry): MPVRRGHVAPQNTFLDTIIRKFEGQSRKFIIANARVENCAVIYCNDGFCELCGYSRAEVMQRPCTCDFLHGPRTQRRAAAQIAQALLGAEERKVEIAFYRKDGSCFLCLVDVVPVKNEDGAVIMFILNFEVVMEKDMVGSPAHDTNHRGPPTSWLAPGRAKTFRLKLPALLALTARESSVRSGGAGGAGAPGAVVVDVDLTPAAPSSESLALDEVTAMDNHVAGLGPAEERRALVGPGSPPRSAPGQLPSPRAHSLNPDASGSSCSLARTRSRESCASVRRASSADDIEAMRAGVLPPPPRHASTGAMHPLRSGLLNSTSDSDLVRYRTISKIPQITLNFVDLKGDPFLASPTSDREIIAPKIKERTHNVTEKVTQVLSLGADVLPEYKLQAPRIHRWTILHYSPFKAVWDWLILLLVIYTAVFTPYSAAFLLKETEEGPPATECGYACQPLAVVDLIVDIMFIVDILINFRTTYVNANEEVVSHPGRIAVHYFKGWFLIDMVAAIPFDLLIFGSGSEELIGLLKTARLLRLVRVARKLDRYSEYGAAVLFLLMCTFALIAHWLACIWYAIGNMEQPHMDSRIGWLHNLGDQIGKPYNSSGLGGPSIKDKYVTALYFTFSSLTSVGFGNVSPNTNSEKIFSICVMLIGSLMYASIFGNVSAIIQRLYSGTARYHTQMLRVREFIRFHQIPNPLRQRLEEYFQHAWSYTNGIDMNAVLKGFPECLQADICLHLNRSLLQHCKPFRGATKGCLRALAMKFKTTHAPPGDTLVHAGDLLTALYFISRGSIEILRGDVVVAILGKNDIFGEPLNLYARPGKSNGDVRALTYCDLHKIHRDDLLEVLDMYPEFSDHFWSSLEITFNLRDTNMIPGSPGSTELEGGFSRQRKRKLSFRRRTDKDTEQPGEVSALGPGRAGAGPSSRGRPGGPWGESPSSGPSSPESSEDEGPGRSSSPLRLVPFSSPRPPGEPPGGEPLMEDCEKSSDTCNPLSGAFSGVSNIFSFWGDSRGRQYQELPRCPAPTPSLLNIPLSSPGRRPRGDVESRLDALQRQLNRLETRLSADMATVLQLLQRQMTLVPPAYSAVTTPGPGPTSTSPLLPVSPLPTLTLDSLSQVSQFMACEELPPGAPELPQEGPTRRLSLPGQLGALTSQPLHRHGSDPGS

Usually AC50 stands for the concentration giving half of the maximal activity seen. Turning to `CCCCc1ccc(-n2nc3cc(Cl)c(C(=O)NC(C)(C)C)cc3n2)cc1`, the values for the AC50 in assay [1] and in assay [2] were < 0.02 µM (active) and 0.032 µM (active), respectively.
In general, EC50 refers to the concentration at which the effect is half-maximal. What is called IC50 is the concentration at which inhibition is half-maximal. For orientation: CC50 means the concentration that lowers cell viability or growth by half. Take `C#CC(=O)N(c1cc(OC)ccc1OC)C(C(=O)NC1CCCC1)c1cccs1` (configuration not stated): the AC50 in assay [3] was 4.57 µM (active); in assay [4], 1.94 µM (active); in assay [5], 0.563 µM (active); in [13] it was 1.25 µM (active). Further, the EC50 in assay [6] is 3.99 µM (active); in assay [7] it was 0.692 µM (active); in [10], 2.46 µM (active); in [11] it was 4.13 µM (active). Moreover, the IC50 is > 100 µM (active) in [8]; 55.6 µM (inactive) in [12]; > 64.6 µM (inactive) in assay [14]; > 64.6 µM (inactive) in assay [15]; 0.096 µM (active) in assay [16]; 0.23 µM (active) in assay [17]. The CC50 in assay [9] was 0.087 µM (active).
Take `C[N+]1(C)C2CCC1CC(OC(=O)c1c[nH]c3ccccc13)C2` (configuration not stated): in assay [18], the AC50 is 25.1 µM (inconclusive).
On to `COc1cc2c(ccc3cc(OC)c(OC)c(O)c32)cc1O`, for which the AC50 in assay [19] was 2.19 µM (active); in [21], 0.406 µM (active). The IC50 in [20] was 1.95 µM (active); in [22], 35.2 µM (inactive); in [23], 9.72 µM (active); in assay [24], 13.9 µM (active); in assay [25] it was 2.89 µM (active).
For `COc1ccc(S(=O)(=O)N(C)C[C@@H]2Oc3c(NC(=O)Nc4ccccc4-c4ccccc4)cccc3C(=O)N([C@@H](C)CO)C[C@H]2C)cc1`, the AC50 in assay [26] is 33.4 µM (active).
For the compound `C=CCN1C[C@@H](C)N(C(c2ccc(C(=O)N(CC)CC)cc2)c2cccc(OC)c2)C[C@@H]1C` (some centres not stated), the EC50 in assay [27] was > 92.5 µM (inactive).
